PubChem BioAssay (NCI)
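GI50 = concentration required for 50% inhibition of growth. TGI: concentration producing complete growth inhibition.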

What was measured:
Experiment in all cases: NCI-60 cell line screen, 384-well format
[1] = system: A498 renal
[2] = system: A549 NSCLC
[3] = system: ACHN renal
[4] = system: BT-549 breast
[5] = system: CAKI-1 renal
[6] = system: COLO 205 colon
[7] = system: DU-145 prostate
[8] = system: EKVX NSCLC
[9] = system: HCC-2998 colon
[10] = system: HCT-116 colon
[11] = system: HCT-15 colon
[12] = system: HL-60(TB) leukemia
[13] = system: HOP-62 NSCLC
[14] = system: HOP-92 NSCLC
[15] = system: HS 578T breast
[16] = system: HT29 colon
[17] = system: IGROV1 ovarian
[18] = system: KM12 colon
[19] = system: LOX IMVI melanoma
[20] = system: M14 melanoma
[21] = system: MALME-3M melanoma
[22] = system: MCF7 breast
[23] = system: MDA-MB-231 breast
[24] = system: MDA-MB-468 breast
[25] = system: MOLT-4 leukemia
[26] = system: NCI-H226 lung
[27] = system: NCI-H23 lung
[28] = system: NCI-H322M lung
[29] = system: NCI-H460 NSCLC
[30] = system: NCI-H522 lung
[31] = system: NCI/ADR-RES ovarian
[32] = system: OVCAR-3 ovarian
[33] = system: OVCAR-4 ovarian
[34] = system: OVCAR-5 ovarian
[35] = system: OVCAR-8 ovarian
[36] = system: PC-3 prostate
[37] = system: RPMI-8226 leukemia
[38] = system: RXF 393 renal
[39] = system: SF-268 CNS
[40] = system: SF-295 CNS
[41] = system: SF-539 CNS
[42] = system: SK-MEL-28 melanoma
[43] = system: SK-MEL-5 melanoma
[44] = system: SK-OV-3 ovarian
[45] = system: SN12C renal
[46] = system: SNB-19 CNS
[47] = system: SNB-75 CNS
[48] = system: SR leukemia
[49] = system: T-47D breast
[50] = system: TK-10 renal
[51] = system: U251 glioblastoma
[52] = system: UACC-257 melanoma

With `CNCCn1c(=O)c2cc(OC)c(OC)cc2c2cnc3cc4c(cc3c21)OCO4` as the compound, how does the GI50 [1] read?
The GI50 was < 10 nM.

And the TGI [1]?
The TGI was 20.9 nM.

What about the GI50 [2] of the same compound?
Its GI50 is < 10 nM.

What about the TGI [2] of the same compound?
The TGI was 1080 nM.

And the GI50 [3]?
Its GI50 is < 10 nM.

And the TGI [3]?
The TGI was < 10 nM.

And the GI50 [4]?
Its GI50 is < 10 nM.

And the TGI [4]?
The TGI was 20.4 nM.

And the GI50 [5]?
The GI50 was < 10 nM.

And the TGI [5]?
Its TGI is 1490 nM.

What about the GI50 [6] of the same compound?
Its GI50 is < 10 nM.

And the TGI [6]?
Its TGI is 1330 nM.

What about the GI50 [7] of the same compound?
The GI50 was < 10 nM.

And the TGI [7]?
Its TGI is < 10 nM.

And the GI50 [8]?
Its GI50 is 21.9 nM.

And the TGI [8]?
The TGI was 51.6 nM.

And the GI50 [9]?
Its GI50 is 12.4 nM.

And the TGI [9]?
Its TGI is 32.4 nM.

What about the GI50 [10] of the same compound?
The GI50 was < 10 nM.

What about the TGI [10] of the same compound?
Its TGI is 19.2 nM.

What about the GI50 [11] of the same compound?
The GI50 was < 10 nM.

What about the TGI [11] of the same compound?
The TGI was 25.8 nM.

What about the GI50 [12] of the same compound?
The GI50 was < 10 nM.

And the TGI [12]?
Its TGI is < 10 nM.

And the GI50 [13]?
The GI50 was < 10 nM.

And the TGI [13]?
The TGI was < 10 nM.

And the GI50 [14]?
Its GI50 is 14.1 nM.

And the TGI [14]?
Its TGI is 1330 nM.

And the GI50 [15]?
The GI50 was 33.5 nM.

What about the TGI [15] of the same compound?
The TGI was 1810 nM.

What about the GI50 [16] of the same compound?
The GI50 was < 10 nM.

What about the TGI [16] of the same compound?
The TGI was 20.5 nM.

What about the GI50 [17] of the same compound?
The GI50 was 15.8 nM.

What about the TGI [17] of the same compound?
Its TGI is 66.7 nM.

And the GI50 [18]?
The GI50 was 10.8 nM.

What about the TGI [18] of the same compound?
The TGI was 43.2 nM.

And the GI50 [19]?
The GI50 was < 10 nM.

What about the TGI [19] of the same compound?
Its TGI is 12 nM.

What about the GI50 [20] of the same compound?
Its GI50 is < 10 nM.

And the TGI [20]?
The TGI was < 10 nM.

And the GI50 [21]?
Its GI50 is 25.5 nM.

And the TGI [21]?
Its TGI is 1810 nM.

What about the GI50 [22] of the same compound?
Its GI50 is < 10 nM.

What about the TGI [22] of the same compound?
Its TGI is 158 nM.

What about the GI50 [23] of the same compound?
Its GI50 is 35.8 nM.

And the TGI [23]?
Its TGI is 139 nM.

And the GI50 [24]?
The GI50 was < 10 nM.

What about the TGI [24] of the same compound?
The TGI was < 10 nM.

And the GI50 [25]?
Its GI50 is < 10 nM.

And the TGI [25]?
The TGI was < 10 nM.

What about the GI50 [26] of the same compound?
Its GI50 is 12.7 nM.

And the TGI [26]?
The TGI was 756 nM.

What about the GI50 [27] of the same compound?
The GI50 was < 10 nM.

What about the TGI [27] of the same compound?
The TGI was 16.2 nM.

And the GI50 [28]?
Its GI50 is 15.6 nM.

What about the TGI [28] of the same compound?
The TGI was 41.1 nM.

What about the GI50 [29] of the same compound?
The GI50 was < 10 nM.

What about the TGI [29] of the same compound?
Its TGI is < 10 nM.

What about the GI50 [30] of the same compound?
The GI50 was < 10 nM.

What about the TGI [30] of the same compound?
Its TGI is 23.3 nM.

What about the GI50 [31] of the same compound?
The GI50 was < 10 nM.

And the TGI [31]?
The TGI was 42.9 nM.

And the GI50 [32]?
The GI50 was < 10 nM.

And the TGI [32]?
The TGI was 14.1 nM.

What about the GI50 [33] of the same compound?
Its GI50 is 21.7 nM.

What about the TGI [33] of the same compound?
The TGI was 42 nM.

What about the GI50 [34] of the same compound?
Its GI50 is 10.6 nM.

What about the TGI [34] of the same compound?
The TGI was 29.1 nM.

And the GI50 [35]?
Its GI50 is < 10 nM.

What about the TGI [35] of the same compound?
Its TGI is 33.8 nM.

What about the GI50 [36] of the same compound?
The GI50 was 22.1 nM.

And the TGI [36]?
Its TGI is 1340 nM.

What about the GI50 [37] of the same compound?
Its GI50 is < 10 nM.

What about the TGI [37] of the same compound?
Its TGI is < 10 nM.

What about the GI50 [38] of the same compound?
Its GI50 is 13.7 nM.

What about the TGI [38] of the same compound?
The TGI was 43.1 nM.

What about the GI50 [39] of the same compound?
The GI50 was < 10 nM.

And the TGI [39]?
The TGI was 17.2 nM.

What about the GI50 [40] of the same compound?
Its GI50 is < 10 nM.

What about the TGI [40] of the same compound?
The TGI was < 10 nM.

What about the GI50 [41] of the same compound?
The GI50 was < 10 nM.

What about the TGI [41] of the same compound?
The TGI was 12.3 nM.

What about the GI50 [42] of the same compound?
The GI50 was 28.8 nM.

What about the TGI [42] of the same compound?
Its TGI is 1830 nM.

And the GI50 [43]?
Its GI50 is < 10 nM.

What about the TGI [43] of the same compound?
The TGI was 14.8 nM.

And the GI50 [44]?
The GI50 was < 10 nM.

And the TGI [44]?
The TGI was 17.7 nM.

And the GI50 [45]?
The GI50 was < 10 nM.

What about the TGI [45] of the same compound?
Its TGI is < 10 nM.

What about the GI50 [46] of the same compound?
The GI50 was < 10 nM.

What about the TGI [46] of the same compound?
Its TGI is 14.1 nM.

And the GI50 [47]?
Its GI50 is < 10 nM.

What about the TGI [47] of the same compound?
The TGI was 23.3 nM.

What about the GI50 [48] of the same compound?
Its GI50 is < 10 nM.

What about the TGI [48] of the same compound?
Its TGI is < 10 nM.

What about the GI50 [49] of the same compound?
The GI50 was < 10 nM.

What about the TGI [49] of the same compound?
Its TGI is 242 nM.

And the GI50 [50]?
Its GI50 is 13.8 nM.

What about the TGI [50] of the same compound?
Its TGI is 58.4 nM.

And the GI50 [51]?
The GI50 was < 10 nM.

And the TGI [51]?
Its TGI is 12.3 nM.

And the GI50 [52]?
Its GI50 is 22.8 nM.

What about the TGI [52] of the same compound?
Its TGI is 1310 nM.
